ChEMBL document CHEMBL1147910, “Novel C-5 aminomethyl pyrrolotriazine dual inhibitors of EGFR and HER2 protein tyrosine kinases” (Bioorg Med Chem Lett, 2007)

How the values were obtained:
[1] = biological target: Epidermal growth factor receptor (Homo sapiens, UniProt P00533)
[2] = biological target: Receptor tyrosine-protein kinase erbB-2 (Homo sapiens, UniProt P04626); test: Inhibition of human HER2
HT-29 = test: Antiproliferative activity against human HT29 cells
NCI-N87 [3] = test: Antiproliferative activity against human N87 cells; format: functional, cell-based
[4] = Metabolic stability in mouse liver microsomes at 3 uM in presence of NADPH after 10 min; format: ADME, Microsome
[5] = Drug level in BALB/c mouse plasma at 50 mg/kg, po after 4 hrs; format: ADME, organism-based; set-up: dose 50 mg/kg, route oral
[6] = Toxicity in human N87 cells xenografted athymic mouse; format: organism-based, NCI-N87; details: in vivo
NCI-N87 [7] = test: animal or person; details: Mus musculus, NCI-N87, po, 336 h, read-out: TGI
Description: (§1) Antitumor activity against human N87 cells xenografted in athymic mouse at 135 mg/kg, po twice daily after 14 days

NCI-N87 [8] = test: animal or person; details: Mus musculus, NCI-N87, po, 336 h, read-out: TGI; remark: listed apart in the source
Description: as §1

[9] = Mean residence time in BALB/c mouse at 10 mg/kg, iv; format: ADME, organism-based; set-up: dose 10 mg/kg, route intravenous; details: in vivo
[10] = Oral bioavailability in BALB/c mouse at 90 mg/kg, po; format: ADME, organism-based; details: in vivo
[11] = Volume of distribution at steady state in BALB/c mouse at 10 mg/kg, iv; format: ADME, organism-based; set-up: dose 10 mg/kg, route intravenous; details: in vivo, read-out: Vss
[12] = Aqueous solubility in phosphate buffer at pH 7.5; format: physicochemical
[13] = Aqueous solubility at pH 3.9; format: physicochemical; details: buffer
NCI-N87 [14] = test: animal or person; details: Mus musculus, NCI-N87, po, 336 h, read-out: TGI; remark: listed apart in the source
Description: Antitumor activity against human N87 cells xenografted in athymic mouse at 180 mg/kg, po twice daily after 14 days

[15] = AUC in BALB/c mouse at 90 mg/kg, po; format: ADME, organism-based; set-up: dose 90 mg/kg, route oral; details: plasma
[16] = Plasma clearance in BALB/c mouse at 10 mg/kg, iv; format: ADME, organism-based; set-up: dose 10 mg/kg, route intravenous
NCI-N87 [17] = test: Antitumor activity against human N87 cells xenografted in athymic mouse at 90 mg/kg, po twice daily after 14 days; details: 336 h, read-out: TGI
[18] = Tmax in BALB/c mouse at 90 mg/kg, po; format: ADME, organism-based; set-up: dose 90 mg/kg, route oral; details: in vivo
[19] = Mortality in human N87 cells xenografted athymic mouse at 180 mg/kg, po; format: organism-based, NCI-N87; set-up: dose 180 mg/kg, route oral; details: in vivo, read-out: Activity
[20] = Cmax in BALB/c mouse at 90 mg/kg, po; format: ADME, organism-based; set-up: dose 90 mg/kg, route oral; details: in vivo
Plasma = test: Fraction unbound ligand in BALB/c mouse plasma; format: ADME, cell-free
[21] = Antitumor activity against human GEO cells xenografted in athymic mouse at 90 mg/kg, po twice daily after 14 days; details: 336 h, read-out: TGI
[22] = Half life in BALB/c mouse at 10 mg/kg, iv; format: ADME, organism-based; set-up: dose 10 mg/kg, route intravenous; details: in vivo
A2780 = test: Antiproliferative activity against human A2780 cells; format: functional, cell-based

Chain of Epidermal growth factor receptor (P00533 whole entry): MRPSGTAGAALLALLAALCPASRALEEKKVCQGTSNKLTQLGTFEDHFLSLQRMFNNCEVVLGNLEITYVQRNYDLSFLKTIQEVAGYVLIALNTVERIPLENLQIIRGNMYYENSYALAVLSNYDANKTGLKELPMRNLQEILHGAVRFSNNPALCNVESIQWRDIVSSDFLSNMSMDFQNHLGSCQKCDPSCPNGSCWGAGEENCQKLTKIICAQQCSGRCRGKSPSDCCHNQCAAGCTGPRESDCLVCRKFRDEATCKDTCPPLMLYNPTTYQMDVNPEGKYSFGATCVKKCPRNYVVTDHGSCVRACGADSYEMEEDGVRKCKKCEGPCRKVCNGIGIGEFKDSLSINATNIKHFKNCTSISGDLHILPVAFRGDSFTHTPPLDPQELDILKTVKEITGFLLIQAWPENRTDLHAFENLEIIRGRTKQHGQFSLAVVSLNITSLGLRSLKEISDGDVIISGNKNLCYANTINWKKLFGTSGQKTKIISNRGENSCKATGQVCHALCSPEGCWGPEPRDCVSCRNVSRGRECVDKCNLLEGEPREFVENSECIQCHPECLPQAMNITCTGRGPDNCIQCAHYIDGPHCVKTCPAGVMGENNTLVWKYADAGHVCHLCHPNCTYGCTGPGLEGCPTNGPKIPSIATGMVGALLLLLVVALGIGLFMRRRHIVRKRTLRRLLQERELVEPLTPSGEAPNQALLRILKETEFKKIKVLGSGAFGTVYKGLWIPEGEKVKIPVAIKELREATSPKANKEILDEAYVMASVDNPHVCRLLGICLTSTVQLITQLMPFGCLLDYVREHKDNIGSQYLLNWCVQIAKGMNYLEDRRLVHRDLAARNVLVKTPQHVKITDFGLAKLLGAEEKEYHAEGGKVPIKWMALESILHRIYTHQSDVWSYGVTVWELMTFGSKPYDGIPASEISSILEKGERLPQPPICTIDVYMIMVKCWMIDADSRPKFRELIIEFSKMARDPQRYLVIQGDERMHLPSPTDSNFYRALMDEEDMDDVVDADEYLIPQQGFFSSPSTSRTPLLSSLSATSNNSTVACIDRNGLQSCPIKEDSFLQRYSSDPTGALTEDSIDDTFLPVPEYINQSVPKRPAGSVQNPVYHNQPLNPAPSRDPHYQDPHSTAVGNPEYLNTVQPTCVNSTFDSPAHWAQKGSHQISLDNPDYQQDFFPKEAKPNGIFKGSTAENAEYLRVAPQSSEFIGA
Chain of Receptor tyrosine-protein kinase erbB-2 (P04626 whole entry): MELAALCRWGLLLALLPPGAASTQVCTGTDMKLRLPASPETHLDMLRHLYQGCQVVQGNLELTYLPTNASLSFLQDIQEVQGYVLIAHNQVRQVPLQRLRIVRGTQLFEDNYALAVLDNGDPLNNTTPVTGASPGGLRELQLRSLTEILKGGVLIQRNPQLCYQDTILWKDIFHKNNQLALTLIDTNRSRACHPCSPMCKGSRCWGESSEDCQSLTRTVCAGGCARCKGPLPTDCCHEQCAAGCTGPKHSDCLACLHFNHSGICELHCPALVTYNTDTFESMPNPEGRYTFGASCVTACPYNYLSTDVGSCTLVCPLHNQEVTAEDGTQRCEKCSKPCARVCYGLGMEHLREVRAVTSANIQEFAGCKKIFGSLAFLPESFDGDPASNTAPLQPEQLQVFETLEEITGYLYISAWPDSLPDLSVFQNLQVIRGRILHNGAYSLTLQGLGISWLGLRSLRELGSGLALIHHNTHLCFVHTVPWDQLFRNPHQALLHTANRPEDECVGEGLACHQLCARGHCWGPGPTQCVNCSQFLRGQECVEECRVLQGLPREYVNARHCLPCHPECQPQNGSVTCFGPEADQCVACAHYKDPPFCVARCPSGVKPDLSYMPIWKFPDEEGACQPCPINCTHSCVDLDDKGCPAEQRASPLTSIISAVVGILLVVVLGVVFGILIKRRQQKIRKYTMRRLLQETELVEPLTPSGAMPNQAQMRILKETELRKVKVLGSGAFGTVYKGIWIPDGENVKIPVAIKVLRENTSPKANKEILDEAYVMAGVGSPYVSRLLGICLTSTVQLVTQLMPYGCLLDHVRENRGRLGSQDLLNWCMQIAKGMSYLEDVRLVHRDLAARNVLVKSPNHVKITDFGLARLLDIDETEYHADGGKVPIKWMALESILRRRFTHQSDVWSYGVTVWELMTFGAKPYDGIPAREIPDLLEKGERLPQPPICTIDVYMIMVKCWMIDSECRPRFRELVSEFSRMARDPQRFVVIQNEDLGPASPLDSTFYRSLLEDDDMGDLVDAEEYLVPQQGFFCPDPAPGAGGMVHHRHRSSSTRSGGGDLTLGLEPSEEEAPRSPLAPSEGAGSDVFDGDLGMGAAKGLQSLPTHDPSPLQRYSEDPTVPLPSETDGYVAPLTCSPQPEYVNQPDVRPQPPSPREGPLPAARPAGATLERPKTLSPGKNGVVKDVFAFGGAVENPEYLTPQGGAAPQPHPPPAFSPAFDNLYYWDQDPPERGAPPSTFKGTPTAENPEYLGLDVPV

Structure (SMILES)	IC50 [1]	IC50 [2]	IC50 (HT-29)	IC50 (NCI-N87 [3])	metabolic rate [4]	concentration at 4 h [5]	other results
Fc1cccc(Cn2ncc3cc(Nc4ncnn5ccc(CN6CCCC6)c45)ccc32)c1	0.5 µM	0.36 µM	–	–	–	–	–
O=C1CN(Cc2ccn3ncnc(Nc4ccc5c(cnn5Cc5cccc(F)c5)c4)c23)CCN1	0.35 µM	0.2 µM	> 10 µM	0.52 µM	–	–	–
O[C@H]1CNCCN(Cc2ccn3ncnc(Nc4ccc5c(cnn5Cc5cccc(F)c5)c4)c23)C1	0.026 µM	0.016 µM	> 10 µM	0.16 µM	0.12 nmol/min/mg	1510 nM	–
CN(CCO)Cc1ccn2ncnc(Nc3ccc4c(cnn4Cc4cccc(F)c4)c3)c12	–	–	–	1.2 µM	–	–	–
Cc1ccn2ncnc(Nc3ccc4c(cnn4Cc4cccc(F)c4)c3)c12	–	–	> 10 µM	–	0.14 nmol/min/mg	4100 nM	–
Fc1cccc(Cn2ncc3cc(Nc4ncnn5ccc(CN6CCCNCC6)c45)ccc32)c1	0.033 µM	0.027 µM	> 3.6 µM	–	0.05 nmol/min/mg	1300 nM	MTD [6]: 180 mg/kg; inhibition in vivo at 135 mg/kg (NCI-N87 [7]): 111%; inhibition in vivo at 135 mg/kg (NCI-N87 [8]): 78%; MRT [9]: 4 h; bioavailability [10]: 77%; Vd [11]: 9.5 L/kg; Solubility [12]: 0.012 mg/kg; Solubility [13]: 9.7 mg/kg; inhibition in vivo at 180 mg/kg (NCI-N87 [14]): 121%; AUC [15]: 48.9 µM·h; clearance [16]: 39 mL/min/kg; inhibition in vivo at 90 mg/kg (NCI-N87 [17]): 97%; Tmax [18]: 3 h; mortality [19]: 12%; Cmax [20]: 7950 nM; PB (Plasma): 98.4%; inhibition in vivo at 90 mg/kg [21]: 90%; half-life [22]: 3.7 h
OC1CCN(Cc2ccn3ncnc(Nc4ccc5c(cnn5Cc5cccc(F)c5)c4)c23)CC1	0.068 µM	0.063 µM	–	0.14 µM	0.29 nmol/min/mg	250 nM	–
COC1CNCCN(Cc2ccn3ncnc(Nc4ccc5c(cnn5Cc5cccc(F)c5)c4)c23)C1 (configuration not stated)	0.19 µM	0.17 µM	–	3.7 µM	–	–	IC50 (A2780): > 5 µM
CC(=O)N1CCN(Cc2ccn3ncnc(Nc4ccc5c(cnn5Cc5cccc(F)c5)c4)c23)CC1	0.71 µM	0.61 µM	–	–	–	4100 nM	–
O=C(O)C1CCN(Cc2ccn3ncnc(Nc4ccc5c(cnn5Cc5cccc(F)c5)c4)c23)CC1	–	0.11 µM	> 10 µM	> 5 µM	0.23 nmol/min/mg	600 nM	–
O=C1CNCCN(Cc2ccn3ncnc(Nc4ccc5c(cnn5Cc5cccc(F)c5)c4)c23)C1	0.78 µM	0.039 µM	> 10 µM	0.65 µM	–	–	–
COC(=O)C1CCN(Cc2ccn3ncnc(Nc4ccc5c(cnn5Cc5cccc(F)c5)c4)c23)CC1	1 µM	> 1 µM	> 10 µM	> 5 µM	–	27 nM	–
CN1CCN(Cc2ccn3ncnc(Nc4ccc5c(cnn5Cc5cccc(F)c5)c4)c23)CC1	0.17 µM	0.12 µM	–	0.49 µM	–	480 nM	–
OCCNCc1ccn2ncnc(Nc3ccc4c(cnn4Cc4cccc(F)c4)c3)c12	0.045 µM	0.047 µM	–	1.95 µM	–	–	–
NC(=O)C1CCN(Cc2ccn3ncnc(Nc4ccc5c(cnn5Cc5cccc(F)c5)c4)c23)CC1	0.14 µM	0.31 µM	–	0.4 µM	–	–	–
CC1CNCCN(Cc2ccn3ncnc(Nc4ccc5c(cnn5Cc5cccc(F)c5)c4)c23)C1 (configuration not stated)	0.13 µM	0.074 µM	–	0.68 µM	0 nmol/min/mg	–	IC50 (A2780): > 2.1 µM
CS(=O)(=O)N1CCCN(Cc2ccn3ncnc(Nc4ccc5c(cnn5Cc5cccc(F)c5)c4)c23)CC1	0.21 µM	0.12 µM	> 10 µM	0.33 µM	–	–	–
Fc1cccc(Cn2ncc3cc(Nc4ncnn5ccc(CN6CCNCC6)c45)ccc32)c1	0.09 µM	0.081 µM	–	0.73 µM	0 nmol/min/mg	6300 nM	–
CN1CCCN(Cc2ccn3ncnc(Nc4ccc5c(cnn5Cc5cccc(F)c5)c4)c23)CC1	0.13 µM	0.12 µM	> 7.9 µM	0.62 µM	0.21 nmol/min/mg	93 nM	–
O[C@@H]1CNCCN(Cc2ccn3ncnc(Nc4ccc5c(cnn5Cc5cccc(F)c5)c4)c23)C1	0.2 µM	0.076 µM	> 10 µM	0.95 µM	0.12 nmol/min/mg	880 nM	–
O=C1CCN(Cc2ccn3ncnc(Nc4ccc5c(cnn5Cc5cccc(F)c5)c4)c23)CCN1	0.24 µM	0.75 µM	> 10 µM	0.2 µM	0.27 nmol/min/mg	44 nM	–
